In PMC8308585, “Design and Synthesis of Novel Thiazolo[5,4-d]pyrimidine Derivatives with High Affinity for Both the Adenosine A1 and A2A Receptors, and Efficacy in Animal Models of Depression” (Pharmaceuticals, 2021):

Experiments:
hA2B AR = target: T1, hA2B AR (Homo sapiens, UniProt P29275); design: method as in PMID 30638876; conditions: inhibition of NECA-stimulated adenylyl cyclase activity, CHO cells; ref [34]; cited from earlier work
T1 construct: expressed in transfected cells; host or cells: CHO cells
T1 sequence (P29275 1-332): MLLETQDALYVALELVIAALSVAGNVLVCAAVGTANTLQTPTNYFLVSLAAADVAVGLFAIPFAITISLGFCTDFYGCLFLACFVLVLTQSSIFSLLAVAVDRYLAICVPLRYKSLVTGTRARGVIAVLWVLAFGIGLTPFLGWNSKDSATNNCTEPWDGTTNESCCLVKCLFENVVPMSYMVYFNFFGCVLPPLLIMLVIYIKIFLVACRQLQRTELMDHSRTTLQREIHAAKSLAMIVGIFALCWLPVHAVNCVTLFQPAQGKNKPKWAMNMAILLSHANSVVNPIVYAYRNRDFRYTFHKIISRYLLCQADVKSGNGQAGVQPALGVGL

mice [1] = assay: Tail suspension test; assay type: in vivo; conditions: mouse TST, 15 mg kg^−1 s.c., single dose, mean ± SEM of 10 mice; vehicle 99.0 ± 6.8
Protocol: (§1) To execute the tests, mice were divided into groups, each of which consisted of 10 animals. The tests were performed after a single p.o. administration of compound 18 at different dosages (10 mg Kg^−1 and 30 mg Kg^−1). Amitriptyline (15 mg Kg^−1) was used as the reference drug. Compounds were acutely administrated 26 min before the beginning of the experiment. In the FST (Table 4), the duration of immobility was recorded during the last 4 min of the 6 min test.
A decrease in the duration of immobility is indicative of an antidepressant-like effect. […] Accordingly, a similar activity was shown in the tail suspension test (Table 5) where the immobility time was measured in the first 2 min, when animals react to the inescapable stress, and in the last 4 min of the test, when the behavioral despair is established. Immobility was defined as the absence of any limb or body movements, except those caused by respiration. A reduction in the duration of the immobility time is indicative of an antidepressant-like effect.
Male CD-1 albino mice (22–25 g; Envigo, Varese, Italy) were housed in CeSAL (Centro Stabulazione Animali da Laboratorio, University of Florence, Florence, Italy) and used at least one week after their arrival. Animals were housed in 26 cm × 41 cm cages (12 mice each) and fed with a standard laboratory diet and tap water ad libitum. They were kept at 23 ± 1 °C with a 12 h light/dark cycle, light at 7 a.m. […]
A piece of tape was adhered to the upper middle of the tail of each animal, creating a flap with the overlap of tape. […] The duration of the test was 6 min and the immobility time was measured in the first 2 min, when animals react to the inescapable stress, and in the last 4 min of the test, when the behavioral despair is established. […]
Behavioral tests were performed by visual observation by researchers blinded to the treatments. Results were expressed as means ± SEM, variance was analyzed by ANOVA. […] Data were analyzed using the “Origin 8.1” software.

mice [2] = assay: Sucrose preference test, LPS-induced anhedonia; assay type: in vivo, mouse; conditions: LPS 1.25 mg kg^−1 i.p. mice, 15 mg kg^−1 s.c. same protocol
Protocol: Anhedonia, or the inability to experience pleasure, is a common symptom of depression. The mood regulatory role of 18 was studied against anhedonia evaluated in the sucrose preference test in animals treated with lipopolysaccharide (LPS), a model of neuroinflammation-induced depressive-like syndrome. Compound 18 (10 mg kg^−1 and 30 mg kg^−1) was daily p.o administered for five consecutive days. Twenty-four hours after the last 18 treatment, LPS 1.25 mg kg^−1 was intraperitoneally injected. Immediately after LPS injection, mice were placed in cages equipped with two bottles: a bottle of 2% sucrose solution and a bottle of water (unsweetened tap water). The consumption of the 2% sucrose solution was evaluated 6 h and 24 h after LPS injection. Amitriptyline (15 mg kg^−1) was used as the reference drug administered following the same protocol.
(§2) Male CD-1 albino mice (22–25 g; Envigo, Varese, Italy) were housed in CeSAL (Centro Stabulazione Animali da Laboratorio, University of Florence, Florence, Italy) and used at least one week after their arrival. Animals were housed in 26 cm × 41 cm cages (12 mice each) and fed with a standard laboratory diet and tap water ad libitum. They were kept at 23 ± 1 °C with a 12 h light/dark cycle, light at 7 a.m. Compound 18 was administered per o.s. whereas amitriptyline was by a s.c. route following the most widely used approach reported in the literature.
Lipopolysaccharide (LPS) from Escherichia coli was purchased from Sigma-Aldrich, (Milan, Italy) freshly dissolved in sterile saline, and injected intraperitoneally (i.p.) at the dose of 1.25 mg kg^−1 [49] after five consecutive days of treatment with compound 18, 1 h after the last administration of the compound. Behavioral tests were performed before 6 h and 24 h after LPS administration.
Mice were placed in cages equipped with a couple of bottles, one containing 2% sucrose solution, the second with water (unsweetened tap water). The consumption of the 2% sucrose solution was evaluated 6 h and 24 h after the beginning of the experiment. The preference index was calculated according to the following formula: preference index = volume consumed sucrose solution/(volume consumed sucrose solution + volume consumed water).
(§3) Behavioral tests were performed by visual observation by researchers blinded to the treatments. Results were expressed as means ± SEM, variance was analyzed by ANOVA. A Bonferroni’s significant difference procedure was used as post-hoc comparison. p values of less than 0.05 and 0.01 were considered significant. Data were analyzed using the “Origin 8.1” software.

mice [3] = assay: Forced swimming test; assay type: in vivo, mouse; conditions: mouse FST, 15 mg kg^−1 s.c., single dose 26 min before test, last 4 min of 6 min, mean ± SEM of 10 mice; vehicle 193.7 ± 8.9
Protocol: as §1, §2
Mice were individually placed into glass cylinders (height: 25 cm, diameter: 10 cm) containing 12 cm of water maintained at 22–23 °C for 6 min. Immobility was considered the animal floated in the water, in an upright position, and made only small movements to keep its head above water. The immobility time was recorded during the last 4-min of the 6-min test. A decrease in the duration of immobility is indicative of an antidepressant-like effect.
as §3

SMILES | IC50 (hA2B AR) | Immobility Time (mice [1]) | Sucrose Preference (%), 6 h (mice [2]; 6 h after LPS, vehicle + LPS 42.3 ± 3.1) | Sucrose Preference (%), 24 h (mice [2]; 24 h after LPS, vehicle + LPS 38.0 ± 5.6) | Immobility Time (mice [3])
Nc1nc(-c2ccccc2)nc2sc(-c3ccccc3)nc12 [compound 20] | > 30 µM |  |  |  | 
CN(C)CCC=C1c2ccccc2CCc2ccccc21 [amitriptyline, reference compound] |  | 61.6 ± 8.4 s | 69.1 ± 4.8 % | 70.3 ± 6.4 % | 149.4 ± 4.6 s
